Reference: patent US11319299B2, “Substituted carboxamides as inhibitors of WDR5 protein-protein binding” (PROPELLON THERAPEUTICS INC., priority 2016, dated 2022)

target: WDR5 (Homo sapiens (Human), UniProt P61964); assay: Surface Plasmon Resonance (SPR) assay, KD and residence time; format: binding; conditions: surface plasmon resonance (SPR) assay; read-out: WDR5 binding affinity (KD)

| SMILES | Kd [nM] |
| --- | --- |
| CN(C)[C@@H]1CCN(c2cc(F)c(-c3cnc(N4CCOCC4)nc3)cc2NC(=O)c2c[nH]nc2C(F)(F)F)C1 [Example 185, N-[4-fluoro-5-(2-morpholin-4-ylpyrimidin-5-yl)-2-[(3R)-3-(dimethylamino)pyrrolidin-1-yl]phenyl]-3-(trifluoromethyl)-1H-pyrazole-4-carboxamide] | 29.8 |
| CN(C)[C@@H]1CCN(c2cc(F)c(-c3ccc(N4CCOCC4)cc3)cc2NC(=O)c2cn[nH]c2)C1 [Example 177, N-[4-fluoro-5-(4-morpholin-4-ylphenyl)-2-[(3R)-3-(dimethylamino)pyrrolidin-1-yl]phenyl]-1H-pyrazole-4-carboxamide] | > 200 |
| COc1ccc(CC(=O)N2CC=C(c3cc(NC(=O)c4c[nH]c(=O)cc4C(F)(F)F)c(N4C[C@@H](C)N(C)[C@@H](C)C4)cc3F)CC2)cc1 [Example 208, N-[4-fluoro-5-[1-[2-(4-methoxyphenyl)acetyl]-3,6-dihydro-2H-pyridin-4-yl]-2-[(3R,5S)-3,4,5-trimethylpiperazin-1-yl]phenyl]-6-oxo-4-(trifluoromethyl)-1H-pyridine-3-carboxamide] | 0.57 |
| COc1ccc(CN2CC=C(c3cc(NC(=O)c4c[nH]c(=O)cc4C(F)(F)F)c(N4C[C@@H](C)N(C)[C@@H](C)C4)cc3F)CC2)cc1 [Example 148, N-[4-fluoro-5-[1-[(4-methoxyphenyl)methyl]-3,6-dihydro-2H-pyridin-4-yl]-2-[(3R,5S)-3,4,5-trimethylpiperazin-1-yl]phenyl]-6-oxo-4-(trifluoromethyl)-1H-pyridine-3-carboxamide] | 0.54 |

Next, values leading:

| Kd [nM] | SMILES |
| --- | --- |
| 1.49 | C[C@@H]1CN(c2ncc(-c3cc(NC(=O)c4c[nH]c(=O)cc4C(F)F)c(N4C[C@@H](C)N(C)[C@@H](C)C4)cc3F)cn2)CCO1 [Example 386, 4-(difluoromethyl)-N-[4-fluoro-5-[2-[(2R)-2-methylmorpholin-4-yl]pyrimidin-5-yl]-2-[(3R,5S)-3,4,5-trimethylpiperazin-1-yl]phenyl]-6-oxo-1H-pyridine-3-carboxamide] |
| 31.1 | C[C@@H]1CN(c2cc(F)c(C3CCNCC3)cc2NC(=O)c2c[nH]c(=O)cc2C(F)(F)F)C[C@H](C)N1C [Example 236, N-[4-fluoro-5-piperidin-4-yl-2-[(3R,5S)-3,4,5-trimethylpiperazin-1-yl]phenyl]-6-oxo-4-(trifluoromethyl)-1H-pyridine-3-carboxamide] |
| 1.66 | C[C@@H]1CN(c2cc(F)c(-c3cnc(N4CCCN(C)CC4)nc3)cc2NC(=O)c2ccc(F)cc2C(F)(F)F)C[C@H](C)N1C [Example 203, 4-fluoro-N-[4-fluoro-5-[2-(4-methyl-1,4-diazepan-1-yl)pyrimidin-5-yl]-2-[(3R,5S)-3,4,5-trimethylpiperazin-1-yl]phenyl]-2-(trifluoromethyl)benzamide] |

same assay, conditions: surface plasmon resonance (SPR); read-out: WDR5 binding affinity (KD)

| SMILES | Kd [nM] |
| --- | --- |
| CC1CN(c2cc(F)c(-c3cc(F)c(C(N)=O)c(F)c3)cc2NC(=O)c2ccc(F)cc2C(F)(F)F)CCN1C (stereo in doubt) [Example 657, 2,6-difluoro-4-[2-fluoro-5-[[4-fluoro-2-(trifluoromethyl)benzoyl]amino]-4-[(3R)-3,4-dimethylpiperazin-1-yl]phenyl]benzamide] | 4.69 |
| C[C@@H]1CN(c2cc(F)c(-c3cc(F)c(C(=O)N(C)C4CCCCC4)c(F)c3)cc2NC(=O)c2c[nH]c(=O)cc2C(F)(F)F)C[C@H](C)N1C [Example 760, N-(4′-(cyclohexyl(methyl)carbamoyl)-3′,5′,6-trifluoro-4-((3S,5R)-3,4,5-trimethylpiperazin-1-yl)-[1,1′-biphenyl]-3-yl)-6-oxo-4-(trifluoromethyl)-1,6-dihydropyridine-3-carboxamide] | 2 |
| CC1CN(c2cc(F)c(-c3ccc(C(N)=O)c(F)c3F)cc2NC(=O)c2ccc(F)cc2C(F)(F)F)CCN1C (stereo in doubt) [Example 668, 2,3-difluoro-4-[2-fluoro-5-[[4-fluoro-2-(trifluoromethyl)benzoyl]amino]-4-[(3R)-3,4-dimethylpiperazin-1-yl]phenyl]benzamide] | 18.3 |

Continued, values first:

| Kd [nM] | SMILES |
| --- | --- |
| 0.68 | CC1CN(c2ncc(-c3cc(NC(=O)c4c[nH]c(=O)cc4C(F)F)c(N4C[C@@H](C)N(C)[C@@H](C)C4)cc3F)cn2)CCO1 (stereo in doubt) [Example 397, 4-(difluoromethyl)-N-[4-fluoro-5-[2-[(2R)-2-methylmorpholin-4-yl]pyrimidin-5-yl]-2-[(3S,5R)-3,4,5-trimethylpiperazin-1-yl]phenyl]-6-oxo-1H-pyridine-3-carboxamide] |
| 0.897 | C[C@@H]1CN(c2cc(F)c(C3=CCN(C(=O)OC4(C)CCC4)CC3)cc2NC(=O)c2c[nH]c(=O)cc2C(F)F)C[C@H](C)N1C [Example 651, (1-methylcyclobutyl) 4-[5-[[4-(difluoromethyl)-6-oxo-1H-pyridine-3-carbonyl]amino]-2-fluoro-4-[(3R,5S)-3,4,5-trimethylpiperazin-1-yl]phenyl]-3,6-dihydro-2H-pyridine-1-carboxylate] |
| 1.5 | C[C@@H]1CN(c2cc(F)c(-c3ccc(N4CCOCC4)nc3)cc2NC(=O)c2ccc(F)cc2C(F)(F)F)C[C@H](C)N1C [Example 547, 4-fluoro-N-[4-fluoro-5-(6-morpholin-4-ylpyridin-3-yl)-2-[(3R,5S)-3,4,5-trimethylpiperazin-1-yl]phenyl]-2-(trifluoromethyl)benzamide] |
| 0.29 | C[C@@H]1CN(c2cc(F)c(-c3cnc(N4CCOC[C@H]4C)nc3)cc2NC(=O)c2ccc(F)cc2C(F)(F)F)CCN1C (stereo in doubt) [Example 736, 4-fluoro-N-[4-fluoro-2-[(3R)-3,4-dimethylpiperazin-1-yl]-5-[2-[(3R)-3-methylmorpholin-4-yl]pyrimidin-5-yl]phenyl]-2-(trifluoromethyl)benzamide] |
| 1.73 | C[C@@H]1CN(c2cc(F)c(C3=CCCN(c4ccnc(C#N)n4)C3)cc2NC(=O)c2c[nH]c(=O)cc2C(F)(F)F)C[C@H](C)N1C [Example 701, N-[5-[1-(2-cyanopyrimidin-4-yl)-3,6-dihydro-2H-pyridin-5-yl]-4-fluoro-2-[(3R,5S)-3,4,5-trimethylpiperazin-1-yl]phenyl]-6-oxo-4-(trifluoromethyl)-1H-pyridine-3-carboxamide] |
| 3.1 | C[C@@H]1CN(c2cc(F)c(-c3ccc(F)c(C(N)=O)c3)cc2NC(=O)c2c[nH]c(=O)cc2C(F)F)C[C@H](C)N1C [Example 552, N-[5-(3-carbamoyl-4-fluorophenyl)-4-fluoro-2-[(3R,5S)-3,4,5-trimethylpiperazin-1-yl]phenyl]-4-(difluoromethyl)-6-oxo-1H-pyridine-3-carboxamide] |
| 2.92 | C[C@@H]1CN(c2cc(F)c(-c3cnc(N4CCOC(C)(C)C4)nc3)cc2NC(=O)c2ccc(F)cc2C(F)(F)F)C[C@H](C)N1C [Example 559, N-[5-[2-(2,2-dimethylmorpholin-4-yl)pyrimidin-5-yl]-4-fluoro-2-[(3R,5S)-3,4,5-trimethylpiperazin-1-yl]phenyl]-4-fluoro-2-(trifluoromethyl)benzamide] |
| 5.97 | CC1CN(c2ccc(-c3cc(NC(=O)c4cn(C)c(=O)cc4C(F)F)c(N4C[C@@H](C)N(C)[C@@H](C)C4)cc3F)cn2)CCO1 (stereo in doubt) [Example 517, 4-(Difluoromethyl)-N-[4-fluoro-5-[6-[(2R)-2-methylmorpholin-4-yl]pyridin-3-yl]-2-[(3S,5R)-3,4,5-trimethylpiperazin-1-yl]phenyl]-1-methyl-6-oxopyridine-3-carboxamide] |
